Tests used:
[1] = Compound cytotoxicity, XTT-based colorimetric assay; assay type: cell-based; settings: human, uninfected MT2 cells
Summary of the method: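 CC50 from uninfected MT2 cells run under the antiviral-assay protocol without virus. Viability read on day 4 by XTT colorimetric assay.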

[2] = tested on: recombinant NL4-3 virus (nef section replaced with Renilla luciferase gene) in MT-2 cells; assay: HIV cell culture assay (antiviral activity, luciferase readout); assay type: cell-based; settings: MT-2 cells infected for 4-5 days with recombinant NL4-3 luciferase virus
Summary of the method: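 NL4-3 reporter virus carrying Renilla luciferase in place of part of nef, produced in 293T cells, was used to infect MT-2 cells for 4-5 days with serial compound dilutions. Luciferase activity was read with a live-cell substrate; EC50 derived from the median effect equation.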

| Compound | CC50 at 4 days ([1]; Table 1a, day 4, XTT) [µM] | CC50 at 4 days ([1]; Table 1, day 4, XTT) [µM] | EC50 ([2]; Renilla, NL43, Table 1a) [nM] | EC50 ([2]; Renilla, NL43, Table 1) [nM] | further results |
| --- | --- | --- | --- | --- | --- |
| Cn1nc(NS(C)(=O)=O)c2c(Cl)ccc(-n3c([C@H](Cc4cc(F)cc(F)c4)NC(=O)Cn4nc(C(F)F)c5c4C(F)(F)[C@@H]4C[C@H]54)nc4cc(Cl)cc(Cl)c4c3=O)c21 (single isomer, unassigned) [Example 179] | > 1 |  |  |  | EC50 ([2]; Table 1a): 0.077 nM |
| Cn1nc(NS(C)(=O)=O)c2c(Cl)ccc(-c3cc4scnc4nc3C(Cc3cc(F)cc(F)c3)NC(=O)Cn3nc(C(F)F)c4c3C(F)(F)[C@@H]3C[C@H]43)c21 (single isomer, unassigned) [Example 1.4] |  | > 10 |  |  | EC50 ([2]; Table 1): 0.1 nM |
| CN(C)S(=O)(=O)c1ccc(-n2c([C@H](Cc3cc(F)cc(F)c3)NC(=O)Cn3nc(C(F)F)c4c3C(F)(F)[C@@H]3C[C@H]43)nc3ncccc3c2=O)cc1 [Example 32, 2-[(2S,4R)-9-(difluoromethyl)-5,5-difluoro-7,8-diazatricyclo[4.3.0.0^2,4]nona-1(6),8-dien-7-yl]-N-[(1S)-2-(3,5-difluorophenyl)-1-{3-[4-(dimethylsulfamoyl)phenyl]-4-oxo-3H,4H-pyrido[2,3-d]pyrimidin-2-yl}ethyl]acetamide] | > 10 |  | 1.1 |  |  |
| Cc1cccc2nc([C@H](Cc3cc(F)cc(F)c3)NC(=O)Cn3nc(C(F)F)c4c3C(F)(F)[C@@H]3C[C@H]43)n(-c3ccc(Cl)c4c(NS(C)(=O)=O)nn(C)c34)c(=O)c12 (single isomer, unassigned) [Example 125] | > 1 |  |  |  | EC50 ([2]; Table 1a): 63.9 nM |
| CC(C)(c1ccc2c(=O)n(-c3ccc(Cl)c4c(NS(C)(=O)=O)nn(CC(F)F)c34)c([C@H](Cc3cc(F)cc(F)c3)NC(=O)Cn3nc(C(F)F)c4c3C(F)(F)[C@@H]3C[C@H]43)nc2c1)S(C)(=O)=O [Example 213, N—((S)-1-(3-(4-chloro-1-(2,2-difluoroethyl)-3-(methylsulfonamido)-1H-indazol-7-yl)-7-(2-(methylsulfonyl)propan-2-yl)-4-oxo-3,4-dihydroquinazolin-2-yl)-2-(3,5-difluorophenyl)ethyl)-2-((3bS,4aR)-3-(difluoromethyl)-5,5-difluoro-3b,4,4a,5-tetrahydro-1H-cyclopropa[3,4]cyclopenta[1,2-c]pyrazol-1-yl)acetamide] | > 1 |  | 0.28 |  |  |
| O=C(Cn1nc(C(F)F)c2c1C(F)(F)[C@@H]1C[C@H]21)N[C@@H](Cc1cc(F)cc(F)c1)c1nc2cn[nH]c2cc1-c1ccc2c(c1)CNC2=O [Example 10.12, 2-((3bS,4aR)-3-(difluoromethyl)-5,5-difluoro-3b,4,4a,5-tetrahydro-1H-cyclopropa[3,4]cyclopenta[1,2-c]pyrazol-1-yl)-N—((S)-2-(3,5-difluorophenyl)-1-(6-(1-oxoisoindolin-5-yl)-1H-pyrazolo[4,3-b]pyridin-5-yl)ethyl)acetamide] |  | > 10 |  | 95 |  |
| Cn1nc(NS(C)(=O)=O)c2c(Cl)ccc(-n3c([C@H](Cc4cc(F)cc(F)c4)NC(=O)Cn4nc(C(F)F)c5c4C(F)(F)[C@@H]4C[C@H]54)nc4cc(C(C)(C)S(C)(=O)=O)ccc4c3=O)c21 (mixture of isomers) [Example 207, N—((S)-1-(3-(4-chloro-1-methyl-3-(methylsulfonamido)-1H-indazol-7-yl)-7-(2-(methylsulfonyl)propan-2-yl)-4-oxo-3,4-dihydroquinazolin-2-yl)-2-(3,5-difluorophenyl)ethyl)-2-((3bS,4aR)-3-(difluoromethyl)-5,5-difluoro-3b,4,4a,5-tetrahydro-1H-cyclopropa[3,4]cyclopenta[1,2-c]pyrazol-1-yl)acetamide] | > 1 |  |  |  | EC50 ([2]; Table 1a): 4.49 nM |
| N#Cc1cc(-c2cc3[nH]ncc3nc2[C@H](Cc2cc(F)cc(F)c2)NC(=O)Cn2nc(C(F)F)c3c2C(F)(F)[C@@H]2C[C@H]32)ccc1Cl [Example 10.15, N—((S)-1-(6-(4-chloro-3-cyanophenyl)-1H-pyrazolo[4,3-b]pyridin-5-yl)-2-(3,5-difluorophenyl)ethyl)-2-((3bS,4aR)-3-(difluoromethyl)-5,5-difluoro-3b,4,4a,5-tetrahydro-1H-cyclopropa[3,4]cyclopenta[1,2-c]pyrazol-1-yl)acetamide] |  | 5.5 |  | 1170 |  |
| COC(=O)c1cccc(-c2cc3[nH]ncc3nc2[C@H](Cc2cc(F)cc(F)c2)NC(=O)Cn2nc(C(F)F)c3c2C(F)(F)[C@@H]2C[C@H]32)c1 [Example 10.8, Methyl 3-(5-((S)-1-(2-((3bS,4aR)-3-(difluoromethyl)-5,5-difluoro-3b,4,4a,5-tetrahydro-1H-cyclopropa[3,4]cyclopenta[1,2-c]pyrazol-1-yl)acetamido)-2-(3,5-difluorophenyl)ethyl)-1H-pyrazolo[4,3-b]pyridin-6-yl)benzoate] |  | > 10 |  | 1200 |  |
| Cn1nc(NS(C)(=O)=O)c2c(Cl)ccc(-n3c([C@H](Cc4cc(F)cc(F)c4)NC(=O)Cn4nc(C(F)F)c5c4CCC5)nc4c(F)cc(F)cc4c3=O)c21 (single isomer, unassigned) [Example 99] | > 1 |  |  |  | EC50 ([2]; Table 1a): 17.8 nM |
| Cn1nc(NS(C)(=O)=O)c2c(Cl)ccc(-c3cc4cc[nH]c4nc3[C@@H](Cc3cc(F)cc(F)c3)NC(=O)Cn3nc(C(F)F)c4c3C(F)(F)[C@@H]3C[C@H]43)c21 (single isomer, unassigned) [Example 87] | > 10 |  | 72.4 |  |  |
| Cn1nc(NS(C)(=O)=O)c2c(Cl)ccc(-c3cc4scnc4nc3C(Cc3cc(F)cc(F)c3)NC(=O)Cc3c[nH]c4ccc(O)cc34)c21 (stereo not shown) [Example 1.7, N-(1-(6-(4-chloro-1-methyl-3-(methylsulfonamido)-1H-indazol-7-yl)thiazolo[4,5-b]pyridin-5-yl)-2-(3,5-difluorophenyl)ethyl)-2-(5-hydroxy-1H-indol-3-yl)acetamide] |  | > 100 |  | 11 |  |
| Cn1nc(NS(C)(=O)=O)c2c(Cl)ccc(-n3c([C@H](Cc4cc(F)cc(F)c4)NC(=O)Cn4nc(C(F)F)c5c4C(F)(F)[C@@H]4C[C@H]54)nc4cc(F)cc(F)c4c3=O)c21 (single isomer, unassigned) [Example 130] | > 1 |  | 0.15 |  |  |
| Cc1ccc2c(=O)n(-c3ccc(Cl)c4c(NS(C)(=O)=O)nn(C)c34)c([C@H](Cc3cc(F)cc(F)c3)NC(=O)Cn3nc(C(F)F)c4c3C(F)(F)[C@@H]3C[C@H]43)nc2n1 (mixture of isomers) [Example 41.2, N-[(1S)-1-[3-(4-chloro-3-methanesulfonamido-1-methyl-1H-indazol-7-yl)-7-methyl-4-oxo-3H,4H-pyrido[2,3-d]pyrimidin-2-yl]-2-(3,5-difluorophenyl)ethyl]-2-[(2S,4R)-9-(difluoromethyl)-5,5-difluoro-7,8-diazatricyclo[4.3.0.0^2,4]nona-1(6),8-dien-7-yl]acetamide] | > 10 |  | 0.022 |  |  |
| N#Cc1cccc(-c2cc3[nH]ncc3nc2[C@H](Cc2cc(F)cc(F)c2)NC(=O)Cn2nc(C(F)F)c3c2C(F)(F)[C@@H]2C[C@H]32)c1 [Example 10.2, N—((S)-1-(6-(3-cyanophenyl)-1H-pyrazolo[4,3-b]pyridin-5-yl)-2-(3,5-difluorophenyl)ethyl)-2-((3bS,4aR)-3-(difluoromethyl)-5,5-difluoro-3b,4,4a,5-tetrahydro-1H-cyclopropa[3,4]cyclopenta[1,2-c]pyrazol-1-yl)acetamide] |  | 9.7 |  | 460 |  |
| Cn1nc(NS(C)(=O)=O)c2c(Cl)ccc(-n3c([C@H](Cc4cc(F)cc(F)c4)NC(=O)Cn4ccc(C5CC5)n4)nc4cccc(C(F)(F)F)c4c3=O)c21 (single isomer, unassigned) [Example 136] | > 1 |  | 38.9 |  |  |
| Cc1nc2nc(C(Cc3cc(F)cc(F)c3)NC(=O)Cn3nc(C(F)F)c4c3C(F)(F)[C@@H]3C[C@H]43)c(-c3ccc(Cl)c4c(NS(C)(=O)=O)nn(C)c34)cc2s1 (single isomer, unassigned) [Example 2.1] |  | > 10 |  |  | EC50 ([2]; Table 1): 0.1 nM |
| O=C(Cn1nc(C(F)F)c2c1C(F)(F)[C@@H]1C[C@H]21)N[C@H](Cc1cc(F)cc(F)c1)c1nc2cc[nH]c2cc1-c1ccc(S(=O)(=O)N2CCOCC2)cc1 [Example 66, 2-((3bS,4aR)-3-(difluoromethyl)-5,5-difluoro-3b,4,4a,5-tetrahydro-1H-cyclopropa[3,4]cyclopenta[1,2-c]pyrazol-1-yl)-N—((R)-2-(3,5-difluorophenyl)-1-(6-(4-(morpholinosulfonyl)phenyl)-1H-pyrrolo[3,2-b]pyridin-5-yl)ethyl)acetamide] | 10 |  | 1540 |  |  |
| Cc1cccc2nc([C@H](Cc3cc(F)cc(F)c3)NC(=O)Cn3ccc(C4CC4)n3)n(-c3ccc(Cl)c4c(NS(C)(=O)=O)nn(C)c34)c(=O)c12 (single isomer, unassigned) [Example 133] | > 1 |  |  |  | EC50 ([2]; Table 1a): 127 nM |
| CC(C)S(=O)(=O)NC(=O)c1cc(-c2cc3[nH]ncc3nc2[C@H](Cc2cc(F)cc(F)c2)NC(=O)Cn2nc(C(F)F)c3c2C(F)(F)[C@@H]2C[C@H]32)ccc1F [Example 10.27, 5-(5-((S)-1-(2-((3bS,4aR)-3-(difluoromethyl)-5,5-difluoro-3b,4,4a,5-tetrahydro-1H-cyclopropa[3,4]cyclopenta[1,2-c]pyrazol-1-yl)acetamido)-2-(3,5-difluorophenyl)ethyl)-1H-pyrazolo[4,3-b]pyridin-6-yl)-2-fluoro-N-(isopropylsulfonyl)benzamide] |  | > 10 |  | 820 |  |
